Assay results taken from the supplement of paper PMC10307832.

Legend:
Test in all cases: relative viability (nuclei count vs DMSO), 5 days (fraction); higher = more cells survive
GSK-J4 + OSI-027 = compound: CCOC(=O)CCNc1cc(N2CCc3ccccc3CC2)nc(-c2ccccn2)n1 [GSK-J4] + COc1cccc2cc(-c3nc([C@H]4CC[C@H](C(=O)O)CC4)n4ncnc(N)c34)[nH]c12 [OSI-027] (partner 0.5 µM)
Summary of the method: (§1)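 Lung cancer cell lines were seeded in 1536-well plates and dosed by pin tool the next day, with either a single drug or a fixed anchor-drug dose combined with five library-drug doses (not always all listed) spaced in √10 steps. Five days later, one step fixed the cells and stained their nuclei (final 0.05% Triton X-100, 1% formaldehyde, 1 ug/ml Hoechst), and nuclei were counted on 4× images. Relative viability is the nuclei count in treated wells divided by the count in vehicle wells, and each value is the median of duplicate plates.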

GSK-J4 + Vorinostat = compound: CCOC(=O)CCNc1cc(N2CCc3ccccc3CC2)nc(-c2ccccn2)n1 [GSK-J4] + O=C(CCCCCCC(=O)Nc1ccccc1)NO [Vorinostat] (partner 1 µM)
Summary of the method: as §1

AZ3146 + Navitoclax = compound: CN1CCC(CC1)OC2=CC(=C(C=C2)NC3=NC=C4C(=N3)N(C(=O)N4C)C5CCCC5)OC [AZ3146] + CC1(C)CCC(c2ccc(Cl)cc2)=C(CN2CCN(c3ccc(C(=O)NS(=O)(=O)c4ccc(N[C@H](CCN5CCOCC5)CSc5ccccc5)c(S(=O)(=O)C(F)(F)F)c4)cc3)CC2)C1 [Navitoclax] (partner 0.5 µM)
Summary of the method: as §1

AZ3146 + Linsitinib = compound: CN1CCC(CC1)OC2=CC(=C(C=C2)NC3=NC=C4C(=N3)N(C(=O)N4C)C5CCCC5)OC [AZ3146] + C[C@]1(O)C[C@@H](c2nc(-c3ccc4ccc(-c5ccccc5)nc4c3)c3c(N)nccn32)C1 [Linsitinib] (partner 1 µM)
Summary of the method: as §1

Row | Cell Line | relative viability (GSK-J4 + OSI-027; first compound 0.5 µM) | relative viability (GSK-J4 + OSI-027; first compound 1.581 µM) | relative viability (GSK-J4 + OSI-027; first compound 5 µM) | relative viability (GSK-J4 + OSI-027; first compound 15.81 µM) | relative viability (GSK-J4 + OSI-027; first compound 50 µM) | relative viability (GSK-J4 + Vorinostat; first compound 0.5 µM) | relative viability (GSK-J4 + Vorinostat; first compound 1.581 µM) | relative viability (GSK-J4 + Vorinostat; first compound 5 µM) | relative viability (GSK-J4 + Vorinostat; first compound 15.81 µM) | relative viability (GSK-J4 + Vorinostat; first compound 50 µM) | relative viability (AZ3146 + Navitoclax; first compound 0.08 µM) | relative viability (AZ3146 + Navitoclax; first compound 0.253 µM) | relative viability (AZ3146 + Navitoclax; first compound 0.8 µM) | relative viability (AZ3146 + Navitoclax; first compound 2.53 µM) | relative viability (AZ3146 + Navitoclax; first compound 8 µM) | relative viability (AZ3146 + Linsitinib; first compound 0.08 µM) | relative viability (AZ3146 + Linsitinib; first compound 0.253 µM) | relative viability (AZ3146 + Linsitinib; first compound 0.8 µM) | relative viability (AZ3146 + Linsitinib; first compound 2.53 µM) | relative viability (AZ3146 + Linsitinib; first compound 8 µM)
1 | LOU-NH91 | 0.749 | 0.721 | 0.56 | 0.69 | 0.792 | 1.02 | 0.868 | 0.668 | 0.841 | 0.902 | 0.685 | 0.609 | 0.76 | 0.697 | 0.7 | 0.954 | 0.84 | 1.06 | 0.914 | 0.895
2 | LU99A | 0.267 | 0.323 | – | 0.248 | 0.236 | 0.47 | 0.344 | – | 0.476 | 0.319 | 0.698 | 0.764 | 1.01 | 0.868 | 0.834 | 0.419 | 0.556 | 0.589 | 0.502 | 0.557
3 | LXF-289 | 0.783 | 0.583 | 0.53 | 0.711 | 0.52 | 0.821 | 0.631 | 0.874 | 0.692 | 0.653 | 0.94 | 1.03 | 0.883 | 0.943 | 0.926 | 0.885 | 1.01 | 0.965 | 0.957 | 0.939
4 | NCI-H23 | 0.657 | 0.363 | 0.535 | 0.41 | 0.392 | 0.596 | 0.411 | 0.583 | 0.473 | 0.506 | 0.751 | 0.687 | 0.786 | 0.86 | 0.993 | 0.584 | 0.563 | 0.616 | 0.656 | 0.605
5 | NCI-H322M | 0.556 | 0.506 | 0.637 | 0.504 | 0.49 | 0.877 | 0.964 | 1.11 | 0.84 | 0.928 | 1.24 | 1.12 | 1.1 | 1.24 | 1.23 | 0.937 | 0.884 | 0.868 | 0.991 | 0.842
6 | NCI-H441 | 0.673 | 0.472 | 0.567 | 0.536 | 0.433 | 0.716 | 0.602 | 0.779 | 0.714 | 0.715 | 0.416 | 0.576 | 0.53 | 0.547 | 0.683 | 0.479 | 0.525 | 0.474 | 0.635 | 0.621
7 | NCI-H460 | 0.586 | 0.494 | 0.537 | 0.508 | 0.522 | 0.663 | – | 0.623 | 0.67 | 0.656 | 1.1 | 1.21 | 1.14 | 1.08 | 0.298 | 0.719 | 0.824 | 0.65 | 0.787 | 0.244
8 | NCI-H520 | 0.33 | 0.22 | 0.278 | 0.248 | 0.257 | 0.644 | 0.527 | 0.69 | 0.659 | 0.648 | 1.18 | 1.06 | 1.04 | 1.1 | 0.981 | 0.843 | 0.896 | 1.05 | 1.12 | 0.786
